Measured values from patent EP0807435A2, “Indirect HMG-CoA-reductase inhibitor” (Sertürner Arzneimittel GmbH, priority 1996, dated 1997).

Columns and labels:
[1] = system: kultivierten Rattenhepatocyten; experiment: Incorporation of 14C-labelled acetate into the non-saponifiable neutral lipid fraction (cholesterol de novo synthesis); type: cell-based, Ratten
Experimental: Erfindungsgemäß wurde überraschenderweise an Hand von Messungen des Einbaus von ^14[…] in die Fraktion der nicht-verseifbaren neutralen Lipide von kultivierten Rattenhepatocyten nachgewiesen, daß Luteolin, seine Derivate und […] Verbindungen konzentrationsabhängig die Neusynthese von Cholesterin in […]. Bei Verwendung eines Luteolin-7-0-glucosid-[…] Kulturmedium in einer Konzentration zwischen 0,02 und 0,1 mg/ml […] (Plateau) von ca. 20% ein, ohne daß zytotoxische Wirkungen nachweisbar wären. Bei höheren Konzentrationen (bis 1 mg/ml) […] noch […] auf (maximal 85 %), ohne […] von 2 mg/ml einsetzen. Durch Ersatz des ^14[…] durch […] vor der Bildung von Mevalonat lag; Hemmwirkungen, die zu einer Verschiebung des Musters der Vorläufersterine des Cholesterin […]. Die Aktivität der HMG-CoA-Reduktase, des Schlüsselenzyms der Cholesterinsynthese, wird somit indirekt über […] oder […] des Enzyms gedrosselt.

[2] = rabbits, blood lipids raised by cholesterol diet (200 mg Cholesterin pro kg Körpergewicht über 60 Tage); Chem. Abstr. 76; cited from earlier work

Compound	Hemmung der Cholesterinneusynthese ([1]; concentrations that are maximally achievable in artichoke leaf extract preparations)	lipidsenkende Wirkung im Tierversuch [2]	Neusynthese von Cholesterin in den Leberzellen ([1]; 14C-acetate incorporation, cultured rat hepatocytes)
O=C(/C=C/c1ccc(O)c(O)c1)O[C@@H]1C[C@@](OC(=O)/C=C/c2ccc(O)c(O)c2)(C(=O)O)C[C@@H](O)[C@@H]1O [Cynarin, 1,5-Di-Caffeoyl-D-Chinasäure, reference compound]	keinerlei Hemmung	–	–
O=c1cc(-c2ccc(O)c(O)c2)oc2cc(O)cc(O)c12 [Luteolin, 31,41,5-Tetrahydroxyflavon]	–	lipidsenkende Wirkung	konzentrationsabhängig die Neusynthese von Cholesterin in den Leberzellen vermindern
Luteolin-7-Glycosid	–	lipidsenkende Wirkung	–
